Test results: patent publication US20050227999A1, “Diarylamine derivatives as calcium channel blockers” (NeuroMed Technologies Inc., priority 2004, published 2005)
pIC50: −log10 of the molar value. Where two headings read alike, the source gives them in different places.

How the values were obtained:
[1] = tested on: T-type over L-type channels; conditions: cited from earlier work
[2] = molecular target: T1, human α1G T-type channels (Homo sapiens, UniProt O43497); assay: T-type calcium channel block, patch clamp in HEK cell lines; type: cell-based
T1 construct: expressed in transfected cells
T1 sequence (O43497 whole entry): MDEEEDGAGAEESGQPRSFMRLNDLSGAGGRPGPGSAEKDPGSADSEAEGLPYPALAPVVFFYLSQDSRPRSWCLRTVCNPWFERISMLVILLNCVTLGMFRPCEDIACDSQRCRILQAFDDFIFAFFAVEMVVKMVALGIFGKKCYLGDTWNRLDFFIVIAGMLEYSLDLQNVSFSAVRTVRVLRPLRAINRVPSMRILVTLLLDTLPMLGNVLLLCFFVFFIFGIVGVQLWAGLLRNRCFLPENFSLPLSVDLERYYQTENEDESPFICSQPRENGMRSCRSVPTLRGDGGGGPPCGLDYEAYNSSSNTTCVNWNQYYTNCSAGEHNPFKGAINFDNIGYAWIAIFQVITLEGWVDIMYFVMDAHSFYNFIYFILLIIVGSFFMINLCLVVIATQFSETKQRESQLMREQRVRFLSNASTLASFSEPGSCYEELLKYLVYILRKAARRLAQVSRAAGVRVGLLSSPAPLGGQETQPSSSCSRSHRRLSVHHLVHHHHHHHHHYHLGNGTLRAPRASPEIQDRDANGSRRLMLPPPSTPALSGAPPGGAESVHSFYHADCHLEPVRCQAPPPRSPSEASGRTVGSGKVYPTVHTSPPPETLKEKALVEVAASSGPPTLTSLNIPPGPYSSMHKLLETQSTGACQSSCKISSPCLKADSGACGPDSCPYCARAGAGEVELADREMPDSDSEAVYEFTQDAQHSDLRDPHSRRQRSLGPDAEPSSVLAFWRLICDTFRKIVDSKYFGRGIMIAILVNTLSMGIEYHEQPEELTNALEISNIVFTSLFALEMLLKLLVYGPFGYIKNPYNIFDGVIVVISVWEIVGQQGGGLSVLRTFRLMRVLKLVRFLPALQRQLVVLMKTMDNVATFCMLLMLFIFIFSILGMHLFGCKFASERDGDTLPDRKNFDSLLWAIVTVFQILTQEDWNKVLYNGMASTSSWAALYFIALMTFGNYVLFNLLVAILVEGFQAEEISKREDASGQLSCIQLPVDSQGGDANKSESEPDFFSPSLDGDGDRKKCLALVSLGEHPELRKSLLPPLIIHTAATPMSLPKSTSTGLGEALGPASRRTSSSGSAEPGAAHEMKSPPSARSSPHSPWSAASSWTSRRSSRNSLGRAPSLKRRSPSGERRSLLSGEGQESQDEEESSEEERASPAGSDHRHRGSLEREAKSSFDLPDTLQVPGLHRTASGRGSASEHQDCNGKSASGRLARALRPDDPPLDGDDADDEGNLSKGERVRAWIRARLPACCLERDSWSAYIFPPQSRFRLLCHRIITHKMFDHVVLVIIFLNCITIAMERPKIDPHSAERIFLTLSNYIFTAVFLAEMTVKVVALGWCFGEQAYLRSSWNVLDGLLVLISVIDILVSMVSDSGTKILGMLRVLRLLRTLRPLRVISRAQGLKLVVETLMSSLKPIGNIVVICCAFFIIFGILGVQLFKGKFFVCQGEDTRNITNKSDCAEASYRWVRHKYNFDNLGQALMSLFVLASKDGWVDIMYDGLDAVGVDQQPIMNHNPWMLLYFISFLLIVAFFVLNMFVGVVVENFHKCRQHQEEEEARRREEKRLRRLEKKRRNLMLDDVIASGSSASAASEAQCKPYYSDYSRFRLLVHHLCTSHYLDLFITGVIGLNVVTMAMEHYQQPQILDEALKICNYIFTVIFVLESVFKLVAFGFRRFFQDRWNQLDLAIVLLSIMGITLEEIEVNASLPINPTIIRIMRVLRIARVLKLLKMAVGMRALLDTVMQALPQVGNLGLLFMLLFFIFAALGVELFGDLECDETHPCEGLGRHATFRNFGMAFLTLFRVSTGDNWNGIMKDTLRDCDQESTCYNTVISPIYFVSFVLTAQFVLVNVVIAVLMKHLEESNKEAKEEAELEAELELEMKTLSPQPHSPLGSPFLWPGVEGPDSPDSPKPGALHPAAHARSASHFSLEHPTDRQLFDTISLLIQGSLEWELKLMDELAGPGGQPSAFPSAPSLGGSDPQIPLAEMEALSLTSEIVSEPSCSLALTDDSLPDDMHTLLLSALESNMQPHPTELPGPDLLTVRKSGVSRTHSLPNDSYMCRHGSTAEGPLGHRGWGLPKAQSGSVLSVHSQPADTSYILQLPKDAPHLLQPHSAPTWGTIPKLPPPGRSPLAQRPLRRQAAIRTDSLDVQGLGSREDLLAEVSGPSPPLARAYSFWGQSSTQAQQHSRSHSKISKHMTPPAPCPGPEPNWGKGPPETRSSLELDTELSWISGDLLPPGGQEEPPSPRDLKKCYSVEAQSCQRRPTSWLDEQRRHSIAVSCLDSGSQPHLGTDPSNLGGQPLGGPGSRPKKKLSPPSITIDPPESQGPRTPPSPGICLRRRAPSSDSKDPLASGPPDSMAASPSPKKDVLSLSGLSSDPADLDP
Protocol: Standard patch-clamp techniques were employed to identify blockers of T-type currents. Briefly, previously described HEK cell lines stably expressing human α1G T-type channels were used for all the recordings (passage #: 4-20, 37° C., 5% CO2). To obtain T-type currents, plastic dishes containing semi-confluent cells were positioned on the stage of a ZEISS AXIOVERT S100 microscope after replacing the culture medium with external solution (see below). Whole-cell patches were obtained using pipettes (borosilicate glass with filament, O.D.: 1.5 mm, I.D.: 0.86 mm, 10 cm length), fabricated on a SUTTER P-97 puller with resistance values of ˜5 MΩ (see below for internal solution).
In the non-inactivating protocol, the holding potential is set at −110 mV and with a pre-pulse at −100 mV for 1 second prior to the test pulse at 40 mV for 50 ms. […]
Test compounds were dissolved in external solution, 0.1-0.01% DMSO. After ˜10 min rest, they were applied by gravity close to the cell using a WPI microfil tubing. The “non-inactivated” pre-pulse was used to examine the resting block of a compound. The “inactivated” protocol was employed to study voltage-dependent block. However, the initial data shown below were mainly obtained using the non-inactivated protocol only. IC50 values are shown for various compounds of the invention in Table 4.

rat formalin model = assay: Formalin-induced pain model; type: in vivo; conditions: 30 mg/kg IP, 10 minutes prior to formalin, saline control=100%
Protocol: The effects of intrathecally delivered compounds of the invention on the rat formalin model were measured. The compounds were reconstituted to stock solutions of approximately 10 mg/ml in propylene glycol. Eight Holtzman male rats of 275-375 g size were randomly selected per test article.
The following study groups were used, with test article, vehicle control (propylene glycol) and saline delivered intraperitoneally (IP):
Prior to initiation of drug delivery baseline behavioral and testing data were taken.
On the morning of testing, a small metal band (0.5 g) was loosely placed around the right hind paw. The rat was placed in a cylindrical Plexiglas chamber for adaptation a minimum of 30 minutes. Test Article or Vehicle Control Article was administered 10 minutes prior to formalin injection (50 μl of 5% formalin) into the dorsal surface of the right hindpaw of the rat. The animal was then placed into the chamber of the automated formalin apparatus where movement of the formalin injected paw was monitored and the number of paw flinches tallied by minute over the next 60 minutes (Malmberg, A. B., et al., Anesthesiology (1993) 79:270-281).
Results are presented as Maximum Possible Effect±SEM, where saline control=100%.

[3] = tested on: spinal nerve ligation (SNL) injury; assay: Spinal nerve ligation (SNL) model of neuropathic pain, thermal hyperalgesia; type: in vivo; conditions: rat SNL, 30 mg/kg orally in propylene glycol
Description: Spinal nerve ligation (SNL) injury was induced using the procedure of Kim and Chung, (Kim and Chung 1992) in male Sprague-Dawley rats (Harlan; Indianapolis, Ind.) weighing 200 to 300 grams. Anesthesia was induced with 2% halothane in O2 at 2 L/min and maintained with 0.5% halothane in O2. After surgical preparation of the rats and exposure of the dorsal vertebral column from L4 to S2, the L5 and L6 spinal nerves were tightly ligated distal to the dorsal root ganglion using 4-0 silk suture. The incision was closed, and the animals were allowed to recover for 5 days. […] Sham control rats underwent the same operation and handling as the experimental animals, but without SNL.
The method of Hargreaves and colleagues (Hargreaves, et al., 1988) was employed to access paw-withdrawal latency to a thermal nociceptive stimulus. Rats were allowed to acclimate within a plexiglas enclosure on a clear glass plate maintained at 30° C. A radiant heat source (i.e., high intensity projector lamp) was activated with a timer and focused onto the plantar surface of the affected paw of nerve-injured or carrageenan-injected rats. Paw-withdrawal latency was determined by a photocell that halted both lamp and timer when the paw was withdrawn. The latency to withdrawal of the paw from the radiant heat source was determined prior to carrageenan or […], 3 hours after carrageenan or 7 days after L5/L6 SNL but before drug and after drug ministration. A maximal cut-off of 40 seconds was Employed to prevent tissue damage. Paw withdrawal latencies were thus determined to the Nearest 0.1 second. Reversal of thermal hyperalgesia was indicated by a return of the paw Withdrawal latencies to the pre-treatment baseline latencies (i.e., 21 seconds). Anti nociception Was indicated by a significant (p <0.05) increase in paw withdrawal latency above this baseline. Data were converted to % anti hyperalgesia by the formula: (100qx (test latency−baseline latency)/(cut-off−baseline latency) where cut-off was 21 seconds for determining anti hyperalgesia.
Compound 7 was administered orally in propylene glycol solution at a dose of 30 mg/kg. The percent activity was calculated for thermal hyperalgesia.

[4] = molecular target: T2, rat brain N-type calcium channel subunits (α1B+α2δ+β1b cDNA subunits) (Rattus norvegicus, UniProt Q02294); assay: N-type calcium channel block, whole cell patch clamp in transfected HEK 293 cells; type: cell-based; conditions: holding potential −80 mV to +10 mV
T2 construct: expressed in transfected cells; host or cells: HEK 293
Protocol: N-type calcium channel blocking activity was assayed in human embryonic kidney cells, HEK 293, stably transfected with the rat brain N-type calcium channel subunits (α1B+α2δ+β1b cDNA subunits). Alternatively, N-type calcium channels (α1B+α2δ+β1b cDNA subunits), L-type channels (α1C+δ+β1b cDNA subunits) and P/Q-type channels (α1A+α2δ+β1b cDNA subunits) were transiently expressed in HEK 293 cells. Briefly, cells were cultured in Dulbecco's modified eagle medium (DMEM) supplemented with 10% fetal bovine serum, 200 U/ml penicillin and 0.2 mg/ml streptomycin at 37° C. with 5% CO2. At 85% confluency cells were split with 0.25% trypsin/l mM EDTA and plated at 10% confluency on glass coverslips. At 12 hours the medium was replaced and the cells transiently transfected using a standard calcium phosphate protocol and the appropriate calcium channel cDNA's. Fresh DMEM was supplied and the cells transferred to 28° C./5% CO2. Cells were incubated for 1 to 2 days before cell recording.
Whole cell patch clamp experiments were performed using an Axopatch 200B amplifier (Axon Instruments, Burlingame, Calif.) linked to a personal computer equipped with PCLAMP software. The external and internal recording solutions contained, respectively, 5 mM BaCl2, 10 mM MgCl2, 10 mM HEPES, 40 mM TEACl, 10 mM glucose, 87.5 mM CsCl (pH 7.2) and 108 mM CsMS, 4 mM MgCl2, 9 mM EGTA, 9 mM HEPES (pH 7.2). Currents were typically elicited from a holding potential of −80 mV to +10 mV using Clampex software (Axon Instruments). Typically, currents were first elicited with low frequency stimulation (0.067 Hz) and allowed to stabilize prior to application of the compounds. The compounds were then applied during the low frequency pulse trains for two to three minutes to assess tonic block, and subsequently the pulse frequency was increased to 0.2 Hz to assess frequency dependent block. Data were analyzed using Clampfit (Axon Instruments) and SigmaPlot 4.0 (Jandel Scientific). […]

Row | pIC50 ([2]; −80 mV (inactivation protocol, voltage-dependent block), read-out: IC50 - 80 mV) | pIC50 ([2]; −100 mV pre-pulse (non-inactivating protocol, resting block), read-out: IC50 - 100 mV) | pIC50 ([4]; low frequency stimulation 0.067 Hz (tonic block), read-out: IC50 @ 0.067 Hz) | pIC50 ([4]; pulse frequency 0.2 Hz (frequency dependent block), read-out: IC50 @ 0.2 Hz) | Structure (SMILES) | selective for T-type over L-type channels [1] | Maximum Possible Effect±SEM, Phase II Total (rat formalin model) [%] | Maximum Possible Effect±SEM, Phase IIB (rat formalin model) [%] | Thermal Hyperalgesia (% Activity) ([3]; 30 min) [%] | Thermal Hyperalgesia (% Activity) ([3]; 60 min) [%] | Thermal Hyperalgesia (% Activity) ([3]; 90 min) [%] | Thermal Hyperalgesia (% Activity) ([3]; 120 min) [%]
1 |  |  |  |  | COCC(=O)O[C@]1(CCN(C)CCCc2nc3ccccc3[nH]2)CCc2cc(F)ccc2[C@@H]1C(C)C [Mibefradil] | 10-30 fold |  |  |  |  |  | 
2 | 6.00 | 6.00 | 6.74 | 6.85 | O=C(CN(c1ccccc1)c1ccccc1)N1CCN(C(c2ccccc2)c2cccc(Cl)c2Cl)CC1 (centres unmarked) [Compound 7, 1-{4-[(2,3-Dichloro-phenyl)-phenyl-methyl]-piperazin-1-yl}-2-diphenylamino-ethanone] |  | 63 ± 10 | 64 ± 11 | 38.45 ± 18.52 | 78.54 ± 10.74 | 40.21 ± 17.08 | 20.98 ± 10.36
